Test results: EP0144845A1, “Indolylacetic acid derivatives and preparations containing same for medical treatments” (GREEN CROSS CORPORATION, priority 1983, dated 1985)

Key:
[1] = test system: carrageenan- induced edema in rats; experiment: Anti-inflammatory action: carrageenan-induced leg edema in rats; type: in vivo, Wister male rats; conditions: 0.3 mg/kg by the tail venous route 1 hour after carrageenan, fat emulsions, leg volume vs physiological saline groups 3 hours after carrageenan
Method: Wister male rats were divided into groups of 6 rats each. 0.1 mℓ of a 1% solution of carrageenan in physiological saline was injected subcutaneously in the heel of a right hind leg for each rat to develop a leg edema. One hour after the injection of carrageenan, a drug to be tested was injected in a dosage of 0.3 mg/kg by the tail venous route. Thereafter the leg volume was measured with suitable time intervals.
The fat emulsions prepared in Preparation Examples 1 to 4 were tested. As a control drug, physiological saline was used.
The degree of the anti-inflammatory action was indicated as an inhibitory ratio in connection with the leg volume of physiological saline-administered groups 3 hours after the injection of carrageenan.

[2] = Solubility in soybean oil (crystal precipitation on standing); type: physicochemical; conditions: 200 mg dissolved in 1 mL soybean oil at 70°C, then standing at 25°C for 2 days and nights
Method: In order to examine the solubility of the above-obtained substance in soybean oil, 200 mg of the substance was dissolved in 1 m£ of soybean oil while heating at 70°C and, thereafter, the resulting solution was allowed to stand at 25°C for 2 days and nights.

Compound	Anti-inflammatory Action Edema Inhibition Ratio (%) [1]	solubility in soybean oil: precipitation of crystals [2]
CCCCOC(=O)COC(=O)Cc1c(C)n(C(=O)c2ccc(Cl)cc2)c2ccc(OC)cc12 [Example 1, butoxycarbonylmethyl indomethacin ester]	60%	–
CCCCCCOC(=O)COC(=O)Cc1c(C)n(C(=O)c2ccc(Cl)cc2)c2ccc(OC)cc12 [Example 2, Hexyloxycarbonylmethyl indomethacin ester]	62%	–
COc1ccc2c(c1)c(CC(=O)OCOC(=O)C(C)(C)C)c(C)n2C(=O)c1ccc(Cl)cc1 [Example 3, Pivaloyloxymethyl indomethacin ester]	58%	–
CCCCOC(=O)COC(=O)Cc1c(C)n(C(=O)c2ccc(F)cc2)c2ccc(OC)cc12 [Example 4, butoxycarbonylmethyl 1-(p-fluorobenzoyl)-5-methoxy-2-methylindole-3-acetate]	68%	Precipitation of crystals was not observed at all
